# pEC50: −log10 of the molar value.
# Tests used:
# Type in all cases: cell-based
# [1] = molecular target: T1, human STING (homozygous HAQ allele) (Homo sapiens, UniProt Q86WV6, G230A/H232R/R293Q/R71H); experiment: Activation of human STING signaling in THP1-Dual Human Monocytes cells, IRF3 luciferase reporter induction; settings: 24 hours incubation
# T1 construct: THP1-Dual™ Human Monocytes cells with the homozygous HAQ allele, known to be a natural variant allele of STING; host or cells: THP1-Dual human monocytes
# T1 sequence (Q86WV6 whole entry R71H/G230A/H232R/R293Q): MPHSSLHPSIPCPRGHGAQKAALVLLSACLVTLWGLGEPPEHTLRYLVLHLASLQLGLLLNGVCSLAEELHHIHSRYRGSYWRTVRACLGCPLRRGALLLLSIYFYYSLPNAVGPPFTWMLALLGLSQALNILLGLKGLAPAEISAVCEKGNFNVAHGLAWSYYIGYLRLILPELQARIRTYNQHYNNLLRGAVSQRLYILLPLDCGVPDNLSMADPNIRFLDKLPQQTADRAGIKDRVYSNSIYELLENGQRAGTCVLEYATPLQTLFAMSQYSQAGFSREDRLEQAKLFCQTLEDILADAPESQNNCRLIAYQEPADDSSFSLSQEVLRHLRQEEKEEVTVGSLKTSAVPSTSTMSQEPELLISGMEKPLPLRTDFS
# Experimental: (§1) THP1-Dual™ Human Monocytes cells with the homozygous HAQ allele, known to be a natural variant allele of STING occurring in ˜20% of the human population (Invivogen) have been engineered with two independent gene reporter systems: a secreted embryonic alkaline phosphatase (SEAP) reporter gene for NFkB activity, and secreted luciferase reporter for […] (IRF3) activity were used. 4×10^5 THP1-Dual™ cells were incubated with test Compounds in a 5-fold titration steps from 1 to 0.0128 μM in RPMI media with 10% FBS, for 24 hours at 37° C. with 5% CO2. Cell culture supernatants (20 μl) from each incubated sample was added to resuspended QUANTI-Blue™ Solution (Invivogen, 180 μl) in each well of a flat-bottom 96-well plate, then incubated for 2 h. NFkB levels were evaluated using a spectrophotometer at 620-655 nm.
# (§2) To evaluate IRF3 reporter levels, cell culture supernatant (20 μl) from each incubated sample was added to QUANTI-Luc™ assay solution (Invivogen, 50 μl), and the luminescence was measured with a SpectraMax M3 spectrophotometer (Molecular Devices).
# (§3) The EC50 value was determined from the dose response curve based on reference Compounds. Table A provides the results for IRF3 reporter induction THP1-Dual™ Human Monocytes cells and Table B provides the results for IRF3 reporter induction in THP1-Dual™ KI-hSTING-R232 Cells (“A” means <1 μM; “B” means ≥1 μM and <10 μM; “C” means ≥10 μM).
# R232 hSTING variant = molecular target: T2, R232 hSTING variant (Homo sapiens, UniProt Q86WV6, H232R); experiment: IRF3 reporter induction in THP1-Dual KI-hSTING-R232 Cells; settings: THP1-Dual KI-hSTING-R232 Cells (R232 haplotype)
# T2 construct: host or cells: THP1-Dual KO-STING cells (knock-in: THP1-Dual KI-hSTING-R232)
# T2 sequence (Q86WV6 whole entry H232R): as the sequence (Q86WV6 whole entry R71H/G230A/H232R/R293Q) above, with H71R, A230G, Q293R counted along it
# Experimental: as §1, §2
# NFkB and IRF3 reporter levels were also determined for THP1-Dual™ KI-hSTING-H232 Cells and THP1-Dual™ KI-hSTING-R232 Cells. THP1-Dual™ KI-hSTING-H232 Cells (R232H Haplotype) were generated from THP1-Dual™ KO-STING cells by knockin of the intronless coding sequence (from the ATG to TGA) of the R232H human STING variant (Invivogen). R232H has been identified as a natural variant allele of STING occurring in ˜14% of the human population. THP1-Dual™ KI-hSTING-R232 Cells (R232 Haplotype) were generated from THP1-Dual™ KO-STING cells by knockin of the intronless coding sequence (from the ATG to the TGA) of the R232 hSTING variant. Genomic studies indicate that this variant, which contains an arginine at position 232 (R232), is the most prevalent variant with an occurrence (homozygous allele) of ˜45-58% in the human population.
# as §3
# human STING = molecular target: T3, human STING (Homo sapiens, UniProt Q86WV6, G230A/H232R/R293Q/R71H); experiment: Activation of human STING signaling in permeabilized THP1-Dual cells, IRF3 induction; settings: digitonin-permeabilized THP1-Dual cells, 30 minutes on ice then 24 h
# T3 construct: host or cells: THP1-Dual cells, digitonin-permeabilized
# T3 sequence (Q86WV6 whole entry R71H/G230A/H232R/R293Q): as the sequence (Q86WV6 whole entry R71H/G230A/H232R/R293Q) above
# Experimental: 4×10^5 THP1-Dual™ cells (NF-κB-SEAP and IRF-Lucia luciferase Reporter Monocytes, Invivogen) were incubated with test Compounds in a 5-fold titration steps from […] in permeabilized buffer (50 mM HEPES pH 7.0, 100 mM KCl, 3 mM MgCl2, 85 mM sucrose, 0.2% BSA, 1 mM ATP, 0.1 mM GTP, 0.1 mM TTP, […]) for 30 minutes on ice. Cells were then washed and incubated in a fresh RPMI media with 10% FBS at 37° C. with 5% CO2 for 24 h. Cell culture supernatants from each sample were collected and NFkB and IRF3 were evaluated as above. Table B provides the results for IRF3 induction (“A” means <1 μM; “B” means ≥1 μM and <10 μM; “C” means ≥10 μM).
Structure (SMILES),pEC50 [1],pEC50 (R232 hSTING variant),pEC50 (human STING)
COc1cc2sc(C(=O)CCC(=O)O)cc2cc1NC(=O)C1(C(=O)Nc2cc3cc(C(=O)CCC(=O)O)sc3cc2OC)CCOCC1 [Compound 218],≤ 5.00,≤ 5.00,–
COc1cc2sc(C(=O)CCC(=O)O)cc2cc1NCCC(=O)Nc1cc2cc(C(=O)CCC(=O)O)sc2cc1OC [Compound 226],≤ 5.00,≤ 5.00,–
COc1cc2sc(C(=O)CCC(=O)O)cc2cc1NC(=O)CCOc1c(OC)cc2sc(C(=O)CCC(=O)O)cc2c1F [Compound 206],≤ 5.00,> 6.00,–
COc1cc2sc(C(=O)CCC(=O)O)cc2cc1/C=C/C(=O)Nc1cc2cc(C(=O)CCC(=O)O)sc2cc1OC [Compound 229],≤ 5.00,≤ 5.00,–
COC(=O)CCC(=O)c1cc2c(F)c(OCC3(COc4c(OC)cc5sc(C(=O)CCC(=O)OC)cc5c4F)COC3)c(OC)cc2s1 [Compound 262],≤ 5.00,–,–
COc1cc2sc(C(=O)CCC(=O)O)cc2cc1NC(=O)CC(=O)Nc1cc2cc(C(=O)CCC(=O)O)sc2cc1OC [Compound 224],≤ 5.00,≤ 5.00,–
"O=C(O)CCC(=O)c1nc2ccc(/C=C\c3ccc4nc(C(=O)CCC(=O)O)sc4c3)cc2s1 [Compound 6, (Z)-4,4′-(ethene-1,2-diylbis(benzo[d]thiazole-6,2-diyl))bis(4-oxobutanoic acid)]",≤ 5.00,–,≤ 5.00
COc1cc2sc(C(=O)CCC(=O)O)cc2c(F)c1OCC(=CC(=O)F)COc1c(OC)cc2sc(C(=O)CCC(=O)O)cc2c1F [Compound 208],≤ 5.00,≤ 5.00,–
COc1cc2sc(C(=O)CCC(=O)O)cc2cc1CCC(=O)Nc1cc2cc(C(=O)CCC(=O)O)sc2cc1OC [Compound 219],≤ 5.00,≤ 5.00,–
COc1cc2sc(C(=O)CCC(=O)O)cc2cc1NC(=O)C1(C(=O)Nc2cc3cc(C(=O)CCC(=O)O)sc3cc2OC)CCC1 [Compound 223],≤ 5.00,≤ 5.00,–
COc1cc2sc(C(=O)CCC(=O)O)cc2cc1CCCC(=O)Nc1cc2cc(C(=O)CCC(=O)O)sc2cc1OC [Compound 220],≤ 5.00,≤ 5.00,–
COc1cc2sc(C(=O)CCC(=O)O)cc2cc1NC(=O)C1CCN(c2cc3cc(C(=O)CCC(=O)O)sc3cc2OC)C1=O (stereo not shown) [Compound 221],≤ 5.00,≤ 5.00,–
COc1cc2sc(C(=O)CCC(=O)O)cc2c(F)c1OCC(=CC(=O)OC(C)(C)C)COc1c(OC)cc2sc(C(=O)CCC(=O)O)cc2c1F [Compound 209],≤ 5.00,≤ 5.00,–
COc1cc2sc(C(=O)CCC(=O)O)cc2c(F)c1OCC#CCOc1c(OC)cc2sc(C(=O)CCC(=O)O)cc2c1F [Compound 227],≤ 5.00,≤ 5.00,–
COc1cc2sc(C(=O)CCC(=O)O)cc2cc1NC(=O)COc1c(OC)cc2sc(C(=O)CCC(=O)O)cc2c1F [Compound 222],≤ 5.00,≤ 5.00,–
"O=C(O)CCC(=O)c1cc2ccc(/C=C\c3ccc4cc(C(=O)CCC(=O)O)sc4c3)cc2s1 [Compound 36, (Z)-4,4′-(ethene-1,2-diylbis(benzo[b]thiophene-6,2-diyl))bis(4-oxobutanoic acid)]",≤ 5.00,–,≤ 5.00
COc1cc2sc(C(=O)CCC(=O)O)cc2cc1NC(=O)C1(C(=O)Nc2cc3cc(C(=O)CCC(=O)O)sc3cc2OC)CC1 [Compound 205],≤ 5.00,≤ 5.00,–
"O=C(O)CCC(=O)c1cc2ccc(CNC(=S)NCc3ccc4cc(C(=O)CCC(=O)O)sc4c3)cc2s1 [Compound 48, 4,4′-(((thiocarbonylbis(azanediyl))bis(methylene))bis(benzo[b]thiophene-6,2-diyl))bis(4-oxobutanoic acid)]",≤ 5.00,–,≤ 5.00
"O=C(O)CCC(=O)c1cc2ccc(NC(=O)Nc3ccc4cc(C(=O)CCC(=O)O)sc4c3)cc2s1 [Compound 25, 4,4′-((carbonylbis(azanediyl))bis(benzo[b]thiophene-6,2-diyl))bis(4-oxobutanoic acid)]",≤ 5.00,–,≤ 5.00
"O=C(O)CCC(=O)c1nc2ccc(-c3ccccc3-c3ccc4nc(C(=O)CCC(=O)O)sc4c3)cc2s1 [Compound 9, 4,4′-(1,2-phenylenebis(benzo[d]thiazole-6,2-diyl))bis(4-oxobutanoic acid)]",≤ 5.00,–,≤ 5.00

# Now from value to molecule:
pEC50 [1],pEC50 (R232 hSTING variant),pEC50 (human STING),Structure (SMILES)
> 6.00,≤ 5.00,–,C=C(COc1c(OC)cc2sc(C(=O)CCC(=O)OC)nc2c1F)COc1c(OC)cc2sc(C(=O)CCC(=O)OC)nc2c1F [compound 264]
> 6.00,> 6.00,–,"C=C(COc1c(OC)cc2sc(C(=O)CCC(=O)O)cc2c1F)COc1c(OC)cc2sc(C(=O)CCC(=O)O)cc2c1F [Compound 202, 4,4′-(((2-methylenepropane-1,3-diyl)bis(oxy))bis(4-fluoro-6-methoxybenzo[b]-thiophene-5,2-diyl))bis(4-oxobutanoic acid)]"
> 6.00,> 6.00,–,"COc1cc2sc(C(=O)CCC(=O)O)cc2c(F)c1OCC(=CCO)COc1c(OC)cc2sc(C(=O)CCC(=O)O)cc2c1F [Compound 210, 4,4′-(((2-(2-hydroxyethylidene)propane-1,3-diyl)bis(oxy))bis(4-fluoro-6-methoxybenzo[b]thiophene-5,2-diyl))bis(4-oxobutanoic acid)]"
> 6.00,> 6.00,–,"C=C(COc1cc2cc(C(=O)CCC(=O)O)sc2cc1OC)COc1c(OC)cc2sc(C(=O)CCC(=O)O)cc2c1F [Compound 207, 4-(5-((2-(((2-(3-carboxypropanoyl)-4-fluoro-6-methoxybenzo[b]thiophen-5-yl)oxy)methyl)allyl)oxy)-6-methoxybenzo[b]thiophen-2-yl)-4-oxobutanoic acid]"
5.00 to 6.00,–,5.00 to 6.00,"O=C(O)CCC(=O)c1cc2ccc(-c3ccccc3-c3ccc4cc(C(=O)CCC(=O)O)sc4c3)cc2s1 [Compound 30, 4,4′-(1,2-phenylenebis(benzo[b]thiophene-6,2-diyl))bis(4-oxobutanoic acid)]"
> 6.00,–,–,O=C(O)CCC(=O)c1nc2ccc(NC(=O)COc3ccc4nc(C(=O)CCC(=O)O)sc4c3)cc2s1 [Compound 18]
> 6.00,5.00 to 6.00,–,"COc1cc2sc(C(=O)CCC(=O)O)cc2c(F)c1OC/C=C/COc1c(OC)cc2sc(C(=O)CCC(=O)O)cc2c1F [Compound 203, (E)-4,4′-((but-2-ene-1,4-diylbis(oxy))bis(4-fluoro-6-methoxybenzo[b]thiophene-5,2-diyl))bis(4-oxobutanoic acid)]"
> 6.00,> 6.00,–,"COc1cc2sc(C(=O)CCC(=O)O)cc2c(F)c1OCc1ccccc1COc1c(OC)cc2sc(C(=O)CCC(=O)O)cc2c1F [Compound 211, 4,4′-(((1,2-phenylenebis(methylene))bis(oxy))bis(4-fluoro-6-methoxybenzo[b]thiophene-5,2-diyl))bis(4-oxobutanoic acid)]"
> 6.00,≤ 5.00,–,"C=C(COc1cc2cc(C(=O)CCC(=O)O)sc2cc1OC)COc1cc2cc(C(=O)CCC(=O)O)sc2cc1OC [Compound 40, 4,4′-(((2-methylenepropane-1,3-diyl)bis(oxy))bis(6-methoxybenzo[b]-thiophene-5,2-diyl))bis(4-oxobutanoic acid)]"
> 6.00,> 6.00,–,"COc1cc2sc(C(=O)CCC(=O)O)cc2c(F)c1OC/C=C\COc1c(OC)cc2sc(C(=O)CCC(=O)O)cc2c1F [Compound 204, (Z)-4,4′-((but-2-ene-1,4-diylbis(oxy))bis(4-fluoro-6-methoxybenzo[b]-thiophene-5,2-diyl))bis(4-oxobutanoic acid)]"
